The text below walks through data of paper PMC7318308, “A Novel Synthetic Dual Agonistic Liposomal TLR4/7 Adjuvant Promotes Broad Immune Responses in an Influenza Vaccine With Minimal Reactogenicity” (Frontiers in Immunology, 2020).

Data set [1] deals with T1, mouse TLR4 (Mus musculus, UniProt Q9JHF9+Q9QUK6).
T1 construct: host or cells: HEK-Blue mTLR4 (HEK293-derived NF-κB/SEAP reporter cells)
T1 sequence (Q9QUK6 26-835): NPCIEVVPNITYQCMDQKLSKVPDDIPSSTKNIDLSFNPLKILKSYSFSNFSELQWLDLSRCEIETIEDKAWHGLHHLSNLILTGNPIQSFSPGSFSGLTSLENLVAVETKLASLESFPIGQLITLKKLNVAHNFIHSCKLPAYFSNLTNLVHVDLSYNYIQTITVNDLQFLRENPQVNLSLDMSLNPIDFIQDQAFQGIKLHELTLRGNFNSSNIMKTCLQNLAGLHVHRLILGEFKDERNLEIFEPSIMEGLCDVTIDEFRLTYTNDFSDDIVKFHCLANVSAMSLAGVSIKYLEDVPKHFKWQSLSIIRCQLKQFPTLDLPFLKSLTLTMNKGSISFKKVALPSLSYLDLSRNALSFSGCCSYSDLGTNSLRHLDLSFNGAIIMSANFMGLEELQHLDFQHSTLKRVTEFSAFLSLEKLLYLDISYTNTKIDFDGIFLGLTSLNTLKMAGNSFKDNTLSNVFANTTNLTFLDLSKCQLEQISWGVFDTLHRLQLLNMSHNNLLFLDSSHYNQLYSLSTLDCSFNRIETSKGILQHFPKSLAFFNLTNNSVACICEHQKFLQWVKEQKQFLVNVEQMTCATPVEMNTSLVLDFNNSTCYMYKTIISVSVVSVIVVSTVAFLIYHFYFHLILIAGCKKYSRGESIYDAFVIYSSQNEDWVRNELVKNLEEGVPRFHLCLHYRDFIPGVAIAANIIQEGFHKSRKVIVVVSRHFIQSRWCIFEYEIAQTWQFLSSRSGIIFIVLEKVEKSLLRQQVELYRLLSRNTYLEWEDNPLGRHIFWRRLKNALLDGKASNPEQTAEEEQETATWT
T1 sequence (Q9JHF9 19-160): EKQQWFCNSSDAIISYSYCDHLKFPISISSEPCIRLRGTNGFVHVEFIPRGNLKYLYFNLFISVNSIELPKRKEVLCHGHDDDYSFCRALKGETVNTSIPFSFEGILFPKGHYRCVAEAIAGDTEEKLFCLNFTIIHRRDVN
The data set is described as follows: TLR4/NF-κB reporter cell assay (SEAP), HEK-Blue mTLR4. Type of data set: cell-based. Particulars: for pEC50: 20 h, 2-fold serial dilutions from 10 μM, NF-κB SEAP, read-out: EC50 on mTLR4 reporter cells; for murine TLR4 agonistic activity (in words): AUC normalized to 2B110 as 100%, Figure 1C. The procedure: (§1) Figure 1 Structure-activity relationship studies in TLR4 agonistic pyrimidoindoles. (A) Syntheses of C8-alkynyl and C8-alkyl analogs. (B) Syntheses of C8-aryl analogs. (C) Scatter plot of hTLR4 and mTLR4 agonistic activity in TLR4-NF-κB HEK reporter cells (HEK-Blue™ hTLR4 and HEK-Blue™ mTLR4, respectively). NF-κB inducible NF-κB SEAP levels in culture supernatants were measured according to manufacturer's protocol. The TLR4 agonistic potency was evaluated as area under the curve (AUC) calculated for dose response curve using 2-fold serial dilutions from 10 μM, and normalized to the AUC for 2B110 as 100% on both axes. […] The color of each point is based on cell viability in TLR4-NF-κB reporter cells for compounds evaluated at 5 μM concentration. Viability data was normalized to vehicle control (Vehicle OD570−650 = 0.58 ± 0.01). (D) Structures of the lead compounds with differences at C8 substitution highlighted in blue.
(§2) Titration curves of 1Z105 and derivatives were used to assess their potency in stimulating human and mouse TLR4 response using HEK NF-κB reporter cells (HEK-Blue™ hTLR4 and mTLR4, respectively). The areas under the curve for dose response curves relative to vehicle (0.5% DMSO) were normalized to the greatest activity as 100% of 2B110 for both assays (Figure 1C). The compounds were also tested for in vitro toxicity by MTT assay (Figure 1C, Supplementary Figure 1).
(§3) TLR4/NF-κB activation was assessed using HEK-Blue™ hTLR4 and HEK-Blue™ mTLR4 (InvivoGen). The cells were treated with 1Z105 and 2B182C (2-fold serial dilutions starting from 10 μM) for 20 h. NF-κB inducible secreted embryonic alkaline phosphatase (SEAP) protein in the culture supernatant was measured according to manufacturer's protocol. To evaluate cell viability, 0.5 mg/mL 3-[4,5-dimethylthiazol-2-yl]-2,5-dipheyl tetrazolium bromide (MTT, Thermo Fisher Scientific) solution was added to each well and incubated at 37°C. Six hours later, formazan crystals were lysed with lysis buffer (15% SDS and 0.12% 12 N HCl) and the absorbance was measured at 570 nm using 650 nm as a reference with a plate reader (Tecan, Switzerland).

The test system of data set [2] is mBMDCs. The data set is described as follows: IL-12 and IL-6 production in mouse BMDCs (ELISA). Type of data set: cell-based. The method, then: (§4) Human PBMC (10^6 cells/mL) were treated with 5 μM 1Z105 and 2B182C overnight and the culture supernatant assessed for human IL-8 by ELISA. Mouse BMDCs (10^6 cells/mL) were incubated with serially diluted compounds (2-fold dilution from 5 μM). 0.5% DMSO was used as vehicle. IL-12 and IL-6 levels in the supernatant were measured by ELISA. ELISA was performed as previously described ([57]). Reagents and dilution factors of antibodies are described in Supplementary Table 1.
In general terms: ELISA stands for enzyme-linked immunosorbent assay.

Data set [3] has as its system HEK-Blue mTLR4 reporter cells. The data set is described as follows: MTT cell viability, murine TLR4 reporter cells. In kind it is cell-based. Conditions: dose response, % viability normalized to vehicle (0.5% DMSO). The procedure:
as §3
(§5) Human TLR4 reporter cells Murine TLR4 reporter cells
(§6) [Compound] 1 μM 10 [Compound] 1 μM 10
(§7) Supplementary Figure 1. Dose response curves for cell viability (toxicity) of lead compounds in human and murine TLR4-NF-κB reporter cells. Cellular toxicity evaluated by MTT assay is presented as % viability normalized to vehicle (0.5% DMSO) as 100%. While 1Z105 had minimal toxicity in both hTLR4 and mTLR4 reporter cells (HEK-BlueTM hTLR4 and HEK-BlueTM mTLR4, […]
(§8) (also on this page, place not known: %Relative (Normalized 100%) 101101 viability vehicle as to)

The test system of data set [4] is HEK-Blue hTLR4 reporter cells. Description: MTT cell viability, human TLR4 reporter cells. Type of data set: cell-based. Particulars: dose response, % viability normalized to vehicle (0.5% DMSO). The procedure: as §3, §5, §6, §7, §8
In data set [5] the test system is IIAV A/California/04/2009 (H1N1)pdm09 HA and NA. The data set is described as follows: Prime-boost vaccination model with IIAV, serum anti-HA/anti-NA IgG ELISA. Type of data set: in vivo, BALB/c mice. Particulars: i.m. IIAV 10 μg + adjuvant days 0 and 21, sera day 28; 1V270 1 nmol, TLR4 ligand 200 nmol/injection.
In data set [6] the test system is mBMDCs. The data set is described as follows: CD40 and CD86 expression on BMDCs (flow cytometry). In kind it is cell-based, mouse. Particulars: 1 μM, 20 h; compared to 1Z105. The method, then: Detailed information for reagents used in flow cytometry analysis are shown in Supplementary Table 2. For co-stimulatory molecules on mBMDCs, mBMDCs (10^6 cells/mL) were incubated with 1 μM 1Z105 and 2B182C for 20 h. 0.5% DMSO was uses as vehicle. After removing the supernatant, cells were washed with the stain buffer (BD Biosciences, San Diego, CA) and incubated with anti-mouse CD16/32 antibody for blocking FcR. Cells were then stained with an antibody cocktail with anti-CD40 and anti-CD86 antibodies for 20–30 min at 4°C. For analysis of lymphocytes harvested from draining lymph nodes, two antibody cocktails were prepared; (1) anti-CD3, anti-CD4, anti-PD-1, and anti-CXCR5 antibodies for Tfh cell analysis, (2) anti-CD3, anti-CD19, anti-CD95, anti-CD138, and anti-GL7 antibodies for B cell analysis. After blocking with anti-CD16/CD32 antibody, 2 × 10^6 cells were stained in each antibody cocktail. For Tfh cell analysis, after staining with primary antibodies, cells were washed with PBS, and incubated with streptavidin-PE. Cells were then washed and stained with propidium iodide to determine live/dead cells. Data were acquired using MACSQuant Analyzer 10 (Miltenyi Biotec, Germany) and analyzed using FlowJo (version 10.6.1, Becton Dickinson, Ashland, OR).
For orientation: Flow cytometry measures light scatter and fluorescence of single cells or particles in a stream.

The subject of data set [7] is hPBMCs. The data set is described as follows: IL-8 release from human PBMC (ELISA). Type of data set: cell-based. Conditions: 5 μM, overnight; compared to 1Z105. The method, then:
as §4

For data set [8], the system named is TLR4-NF-κB reporter cells. Description: MTT cell viability in TLR4-NF-κB reporter cells. In kind it is cell-based. Conditions: 10 µM, MTT, Supplementary Figure 1. The method, then:
as §1, §3

Data set [9] addresses T2, human TLR4 (Homo sapiens, UniProt O00206+Q9Y6Y9).
T2 construct: host or cells: HEK-Blue hTLR4 (HEK293-derived NF-κB/SEAP reporter cells)
The data set is described as follows: TLR4/NF-κB reporter cell assay (SEAP), HEK-Blue hTLR4. Particulars: for human TLR4 agonistic activity (in words): AUC normalized to 2B110 as 100%, Figure 1C. Type of data set: cell-based. The procedure: as §1, §2, §3

Where [10] appears, read: Mus musculus, BMDC, read-out: EC50 for IL-6 production in mBMDCs, 2-fold dilution from 5 μM.
Setting [11] is: Mus musculus, BMDC, read-out: EC50 for IL-12 production in mBMDCs, 2-fold dilution from 5 μM.

Molecules are shown by their SMILES. pEC50: −log10 of the molar value. “Also recorded” adds a separate entry of the source. Read-outs that look alike come from different tables or passages of the source.

T2 sequence (O00206 24-839): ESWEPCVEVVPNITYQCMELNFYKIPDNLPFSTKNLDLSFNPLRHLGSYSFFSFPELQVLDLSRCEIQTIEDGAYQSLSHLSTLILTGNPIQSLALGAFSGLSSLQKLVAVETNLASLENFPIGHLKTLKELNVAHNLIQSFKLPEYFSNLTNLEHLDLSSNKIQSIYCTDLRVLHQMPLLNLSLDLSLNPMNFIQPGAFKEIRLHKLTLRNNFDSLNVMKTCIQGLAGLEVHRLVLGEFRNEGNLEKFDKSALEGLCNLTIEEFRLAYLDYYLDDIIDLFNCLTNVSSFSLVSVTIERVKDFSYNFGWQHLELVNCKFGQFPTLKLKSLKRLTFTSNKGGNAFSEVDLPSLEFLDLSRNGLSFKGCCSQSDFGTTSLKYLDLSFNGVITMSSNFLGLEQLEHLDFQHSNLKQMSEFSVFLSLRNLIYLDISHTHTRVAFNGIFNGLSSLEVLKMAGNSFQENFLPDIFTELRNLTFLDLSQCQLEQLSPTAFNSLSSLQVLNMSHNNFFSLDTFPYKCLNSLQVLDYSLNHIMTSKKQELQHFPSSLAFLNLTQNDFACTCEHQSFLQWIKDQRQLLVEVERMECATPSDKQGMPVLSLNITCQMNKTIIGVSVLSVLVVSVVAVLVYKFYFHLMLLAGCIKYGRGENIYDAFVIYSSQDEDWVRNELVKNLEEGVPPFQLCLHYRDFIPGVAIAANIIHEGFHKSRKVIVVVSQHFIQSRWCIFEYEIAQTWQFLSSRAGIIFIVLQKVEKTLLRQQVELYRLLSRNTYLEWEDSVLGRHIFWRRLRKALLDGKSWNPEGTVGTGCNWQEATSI
T2 sequence (Q9Y6Y9 17-160 limits assumed): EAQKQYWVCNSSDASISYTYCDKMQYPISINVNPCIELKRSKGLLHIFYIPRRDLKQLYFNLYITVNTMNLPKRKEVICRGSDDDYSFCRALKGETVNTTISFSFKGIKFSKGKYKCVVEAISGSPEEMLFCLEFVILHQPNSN

On to `Cn1c2ccccc2c2nc(SCC(=O)NC3CCCCC3)n(-c3ccccc3)c(=O)c21` [1Z105, N-cyclohexyl-2-((5-methyl-4-oxo-3-phenyl-4,5-dihydro-3H-pyrimido[5,4-b]indol-2-yl)thio)acetamide], for which the pEC50 in data set [1] was 5.13; in data set [2] (setting [10]), 6.20; in data set [2] (setting [11]), 6.11. In data set [3], the “toxicity, mTLR4 reporter cells (in words)” value is reported as “minimal”. Moreover, in [4], the “toxicity, hTLR4 reporter cells (in words)” value is reported as “minimal”.

On to `Cn1c2ccc(-c3ccco3)cc2c2nc(SCC(=O)NC3CCCCC3)n(-c3ccccc3)c(=O)c21` [2B182C], for which the “serum anti-HA IgG1 (in words)” value in data set [5] was “significantly increased; also recorded: higher serum anti-HA and anti-NA IgG1 levels compared to 1Z105”. In [5], the “serum anti-NA IgG1 (in words)” value was “significantly increased; also recorded: higher serum anti-HA and anti-NA IgG1 levels compared to 1Z105”. The “serum anti-NA IgG2a (in words)” value in data set [5] is listed as “enhanced”. For the same compound, the pEC50 in [1] is 5.78; in data set [2] (setting [10]), 6.80; in [2] (setting [11]), 6.70; in [2] (read-out: EC50 for IL-6 production in mBMDCs, 2-fold dilution from 5 μM), 6.92; in [9] (20 h, 2-fold serial dilutions from 10 μM, NF-κB SEAP, read-out: EC50 on hTLR4 reporter cells) it was 5.78. Further, the “murine TLR4 agonistic activity (in words)” value is reported as “high TLR4 stimulatory potency” in data set [1] and “potency equivalent to that of compound 2B110” in data set [1] (listed as 8s). In data set [1] (ratio of EC50), the “fold more potent than 1Z105, mTLR4 reporter line” value is 4 fold. Further, the “CD40 expression on mBMDCs (in words)” value in [6] is reported as “significantly higher expression levels”. In addition, the “CD86 expression on mBMDCs (in words)” value in data set [6] is “significantly higher expression levels”. Also, the “IL-8 secretion by hPBMCs (in words)” value in [7] is on record as “higher level of IL-8 secretion”. For the same compound, the “toxicity at 10 µM (in words)” value in data set [8] was “exhibited toxicity”. Moreover, the “human TLR4 agonistic activity (in words)” value is on record as “high TLR4 stimulatory potency” in data set [9] and “potency equivalent to that of compound 2B110” in [9] (listed as 8s). The “fold more potent than 1Z105, hTLR4 reporter cells” value in [9] (ratio of EC50) is recorded as “approximately 800 fold”.
